In the assay the target is T1, long chromatin fibers (chicken histone octamer on 177 bp x 36 array of 601 DNA) (Gallus gallus, UniProt P02263+P0C1H3+P62801+P84229).
T1 construct: gene H3-I
The conditions noted are these: labelled compound; 0.5 and 1 uM; on ice; with or without 4.5 mM MgCl2; histone-DNA complex, site on histone versus DNA not resolved.

Consider `CC1=CC(C)=[N+]2C1=C(CC[C@@H](C)[C@H]1CC[C@H]3[C@@H]4CC=C5C[C@@H](O)CC[C@]5(C)[C@H]4CC[C@]13C)c1c(C)cc(C)n1[B-]2(F)F` [TopFluor cholesterol, 23-(dipyrrometheneborondifluoride)-24-norcholesterol], for which the “fluorescence co-migration in native agarose gel (EMSA), pelleting assay” value is given as “cholesterol bound avidly to open or compacted chromatin fibers”.
